Reference: a melting point compilation (Tetko et al.; mined from patent text by program, amines drawn as free bases though some values may be those of a salt)

| melting point | Structure (SMILES) |
| --- | --- |
| 204 to 205 °C | C=C(C)C(=O)Nc1ccc(O)c(-n2nc3ccc(Cl)cc3n2)c1 |
| 75 to 85 °C | CCCc1c(C(=O)N(C)Cc2ccc3c(Br)c(OCc4nnn[nH]4)ccc3c2)cnn1-c1ccccc1 |
| 192 to 194 °C | Cc1c(-c2ccccc2)n(-c2c(F)c(F)c(F)c(F)c2F)c(-c2ccccc2)cc1=O |
| 213 to 215 °C | CC(C)(C)OC(=O)N1CCN(S(=O)(=O)c2ccc(S(=O)(=O)c3ccc4cc(Br)ccc4c3)cc2)CC1 |
| 72 to 75 °C | Cn1c2c(c3cc(OCc4ccccc4)ccc31)CC(CCN)C2 (centres undefined) |
| 70 °C | CSc1ccc(CCCOCCCCCCNCC(O)c2ccc3c(n2)COC(c2ccccc2)O3)cc1 (centres undefined) |
| 189 °C | CN1CC=C(SC(c2cccc(Br)c2)c2nc3ccccc3[nH]2)CC1 (centres undefined) |
| 145 to 150 °C | O=C(Cl)N1c2ccccc2C=Cc2ccccc21 |
| 219 to 221 °C | Cc1c(Cc2cccnc2)oc2ccc(C(=O)O)cc12 |
| 106 °C | Fc1ccc([C@H]2CC[C@H](N3CCN(Cc4ccccc4)CC3)CC2)cc1 |
| 197 to 198 °C | O=C(C=Cc1ccc(O)c([N+](=O)[O-])c1)N(c1ccccc1)c1ccccc1 |
| 149 to 150 °C | Nc1ncc(Br)n2nc(SCc3ccccc3)nc12 |
| 258 to 260 °C | O=C(O)c1cc2c(s1)-c1ccccc1OC2C1=CCCC=C1 (centres undefined) |
| 198 to 235 °C | Cc1ccc(OCC(=O)O)c2sc3ccccc3c(=O)c12 |
| 138 to 139 °C | Nc1noc(CN2CCC[C@@H](OCc3cc(C(F)(F)F)cc(C(F)(F)F)c3)[C@H]2c2ccccc2)n1 (relative stereo) |
| 112 to 114 °C | O=C1Nc2ccccc2C1CCCCN1CCN(c2ccc(Cl)c(Cl)c2)CC1 (centres undefined) |
| 121 to 124 °C | Cc1nc[nH]c1CSCCNC1=Nc2ccccc2C(=O)C1 |
| 110 to 115 °C | O=C1C=CC(=O)N1c1ccccc1SCCSc1ccccc1N1C(=O)C=CC1=O |
| 162 to 164 °C | COc1ccc(-c2nc3ccc(OC)cc3s2)cc1 |
| 154 to 155 °C | Cc1ccc(C(=C(C=O)c2nnnn2C)c2ccc(C)cc2F)c(F)c1 |
| 146 to 147 °C | O=C1c2ccccc2C(=O)N1CSc1nnnn1-c1ccccc1 |
| 215 to 217 °C | Clc1ccc2c(Nc3ccccc3)ncnc2c1 |

| melting point | Structure (SMILES) |
| --- | --- |
| 105 to 107 °C | CC1(C)CC(=O)c2cc(OCc3ccccc3)ccc2O1 |
| 63 to 65 °C | C#CC[C@@H](NCCCNC(=O)OCc1ccccc1)c1nc2cc(Cl)ccc2c(=O)n1Nc1ccccc1 |
| 176 to 178 °C | COCCNc1nc2c(N)nc3ccccc3c2n1CC(C)(C)O |
| 248 to 255 °C | CN1CCC(=C2c3ccccc3[C@@H](O)[C@@H](O)c3ccccc32)CC1 |
| 132 to 135 °C | CCCc1c(OCc2cccc(COc3ccccc3CCC(=O)O)c2)ccc2c1OCCC2=O |
| 156 to 157 °C | COc1ccc(CCNC(=O)CCCCC(=O)NCCc2cccc3ccccc23)cc1OC |
| 198 to 200 °C | Cc1cccc(C(=O)c2[nH]c3cc(Cl)ccc3c2NC(=O)N(C)C)c1 |
| 236 to 238 °C | CS(=O)(=O)Nc1cc2occ(NC=O)c(=O)c2cc1Oc1ccccc1 |
| 204 to 206 °C | CCOC(=O)c1ncc2[nH]c3ccc(I)cc3c2c1COC |
| 170 to 171 °C | COc1cccc(CC2(c3ccc4[nH]ccc4c3)CCNC2)c1 (centres undefined) |
| 262 to 264 °C | COc1ccc(C2Sc3cc(Oc4ccccc4)ccc3NC(=O)C2O)cc1Cl (centres undefined) |
| 189 to 190 °C | CC(C)(C)Sc1c(CC(C)(C)C(=O)O)n(Cc2ccc(Cl)cc2)c2ccc(OCc3ccccn3)cc12 |
| 68 to 70 °C | N#Cc1ccccc1OCC(O)CN1CCN(c2ncccc2F)CC1 (centres undefined) |
| 130 to 133 °C | COc1cc(Nc2nccc(-c3cccc4ccccc34)n2)cc(OC)c1OC |
| 295 to 300 °C | O=C(O)c1ccc(-c2ccc3cc(O)c(C45CC6CC(CC(C6)C4)C5)cc3c2)cc1 |
| 140 to 141 °C | Cn1ncc2c1-c1c(Nc3ccccc3)sc(C(N)=O)c1CC2 |
| 115 to 116 °C | CCn1nc(-c2ccccc2)c(C(=O)CCc2ccccc2)c(N)c1=O |
| 258 to 260 °C | O=C1CCCC2=C1C(c1cccc(Br)c1)C1=C(CCCC1)N2 (centres undefined) |
| 144 to 145 °C | COc1ccc(-c2nn(Cc3ccc(Cl)cc3)c(=S)cc2-c2ccncc2)cc1 |
| 148 to 150 °C | COc1ccc(CN2C(=O)[C@@H](N3C(=O)c4ccccc4C3=O)[C@H]2CCc2ccccc2)c(OC)c1 (relative stereo) |
| 165 °C | O=C(O)c1csc(-c2cccc(Cn3cc(C4c5ccccc5C=Cc5ccccc54)c(=S)[nH]c3=O)c2)n1 |
| 77 to 78 °C | N[C@@H](Cc1cccc(OCC(F)(F)C(F)F)c1)[C@H](O)c1ccc(F)cc1 (racemic) |

More lines, now with the values behind:

| Structure (SMILES) | melting point |
| --- | --- |
| N#CC1=C(C2CC2)Nc2n[nH]cc2C1c1cccc2nocc12 (centres undefined) | 248 °C |
| CCc1nc2c(cnn2CC)c(NC2CCOCC2)c1CNC(=O)c1cccc(C(=O)NCc2cc(Cl)cc(-c3cccc(CN4CC(C)NC(C)C4)c3)c2)c1 (centres undefined) | 112 to 114 °C |
| CC(C(N)=O)c1ccc2c(c1)C(=O)Cc1cc([N+](=O)[O-])ccc1S2 (centres undefined) | 207 to 209 °C |
| COc1cccc2c1C(=O)N1CCC[C@H]1c1c(C(=O)OC(C)(C)C)ncn1-2 | 200 to 201 °C |
| COC(=O)CCC/C=C(/c1cc(C)c2onc(OC)c2c1)c1cc(C)c2oc(=O)n(C)c2c1 | 54 to 55 °C |
| O=C1c2c(cc(O)c(O)c2[N+](=O)[O-])CC1CN1CCOCC1 (centres undefined) | 193 to 195 °C |
| CCN1C(=O)C(C)(C)c2ccc(C(=O)Nc3ccc(F)cc3)cc21 | 179 to 181 °C |
| O=[N+]([O-])c1cc(Cl)c(CCl)c(Cl)c1 | 37 to 39 °C |
| CCS(=O)(=O)N[C@H]1CC[C@H](CCN2CCC(c3cccc4c3CCO4)CC2)CC1 | 131 °C |
| N#Cc1c(O)nsc1S(=O)(=O)c1ccccc1 | 163 to 164 °C |
| CNc1n[nH]c(=S)n1C | 213 °C |
| COC(=O)C(=C1NCCCO1)[N+](=O)[O-] | 132 to 133 °C |
| N#Cc1ccc(O)cn1 | 191 to 194 °C |
| CCOc1ccc(C2=NNC(=O)CC2)cc1OCC | 142 to 143 °C |
| O=C(O)c1c(C(F)(F)F)nc2cc(C(F)(F)F)ccc2c1O | 240 °C |
| O=[N+]([O-])c1ccc(-c2c[nH]c(Cl)n2)cc1 | 136 to 138 °C |
| O=C1Nc2ccc(I)cc2C1=NNC(=O)c1ccc(I)cc1 | 326 °C |
| N#CCc1nn2c(-c3cccc(C(F)(F)F)c3)ccnc2c1C#N | 180 to 181 °C |
| COC(=O)C1=C(O)CCc2ccc(OC)cc21 | 48 to 48.5 °C |
| Cc1nc2c(O)cccc2n1C | 243 to 245 °C |
| N#CC(N)=C(C#N)N=Cc1cnn(-c2c(Cl)cc(C(F)(F)F)cc2Cl)n1 | 234 to 235 °C |
| Cc1cc(O)cc(O)c1C=O | 174 to 177 °C |
| CCCCCCOC(=O)Oc1ccc(-c2ccc(C#N)cc2)cc1 | 87.1 to 87.5 °C |
| O=[N+]([O-])c1ccc(-c2cccnc2)s1 | 169 to 171 °C |
| N#Cc1cccc2c1NCCC2 | 75 to 76 °C |
| N#CC(=C(C#N)c1ccc(F)cc1)c1ccc(F)cc1 | 194 to 195 °C |
| CCC12CCC3C4CCC(=O)C=C4CCC3C1CCC2OC1CCCCO1 (centres undefined) | 148 to 152 °C |
| C[C@@H](n1ncn(-c2ccc(-n3nccn3)cc2)c1=O)[C@](O)(Cn1cncn1)c1ccc(F)cc1F | 213 to 215 °C |

| Structure (SMILES) | melting point |
| --- | --- |
| N#Cc1ccc2c(c1)N(C1CC1)C=NS2(=O)=O | 273 to 276 °C |
| CC(=O)Nc1ccc(NC(=O)N(C[C@H]2CC[C@H](CN(C(=O)Nc3ccc(NC(C)=O)cc3)C3CCCCC3)CC2)C2CCCCC2)cc1 | 228 to 231 °C |
| Cc1cccc(CC(=O)O)c1OCCCc1cn(-c2ccc(C(F)(F)F)nn2)nc1C(C)(C)C | 96 to 97 °C |
| CCCNC1CCc2nc(N)sc2C1 (centres undefined) | 145 to 150 °C |
| Cc1nc(-c2cnc3[nH]cc(C(=O)N[C@@H](C(=O)N4CC(C#N)C4)C(C)(C)C)c3n2)cn1-c1cc(F)cc(F)c1 | 187 to 190 °C |
| OC(Cc1ccc(Cl)cc1)(Cn1ccnc1)c1ccc2c(c1)Cc1cc(Cl)ccc1-2 (centres undefined) | 218 °C |
| CC[C@H]1[C@@H](O)C(F)(F)C(=O)N1c1ccc(C#N)c(Cl)c1 | 137 to 140 °C |
| CCCCNc1c(C(=O)OCC)c(C)nc2sc(C)nc12 | 53 to 54 °C |
| CCC(=O)Oc1c(OC)cc(C=CC(=O)Nc2cnc3c(C)cc(C)cc3c2-c2ccccc2Cl)cc1OC | 235 to 236 °C |
| COc1cnn(-c2cccc(CBr)c2)c(=O)c1OC | 67 to 69 °C |
| CC(C)(C)NC(=O)N1C(=O)[C@H](O)[C@@H]1c1ccccc1 | 148 to 151 °C |
| CCOC(=O)CN1C(=O)COc2cc([N+](=O)[O-])ccc21 | 120 to 122 °C |
| CCc1c(Cl)cc(C(C)(C)C)c(O)c1-c1nc2ccc(S(=O)(=O)C(F)(F)F)cc2c(=O)[nH]1 | 285 to 286 °C |
| O=C(c1ccccc1)c1cc([N+](=O)[O-])ccc1-n1nc(CO)cc1CO | 145 to 147 °C |
| CO[C@]12C[C@@H](CN3CCC(O)(c4ccc(Cl)cc4)CC3)CN(C)[C@@H]1Cc1c[nH]c3cccc2c13 | 144 to 148 °C |
| CCCCc1nc2c(N)nc3cccnc3c2n1CCCCNC(=O)Cn1cc(C)c(O)nc1=O | 242 to 244 °C |
| CC(C)(C)OC(=O)C(Br)c1ccc(Cl)c(Cl)c1 (racemic) | 88 °C |
| N#CCNC(=O)C(F)(F)F | 39 to 40 °C |
| COc1nc(C)nc(NC(=O)NS(=O)(=O)c2ccccc2OC(F)(F)C(F)(F)F)n1 | 157 to 159 °C |
| COC(=O)C(OC(=O)c1ccc(C(=O)O)cc1)C(=O)OC | 104 to 107 °C |
| O=C1c2cc(NCCO)ccc2OC12CC2 | 74 to 75 °C |
| CSc1c(C=NO)c(=O)n(C)c(=O)n1C | 165 °C |
| Nc1ncc(CN2CC=C(c3ccccc3)CC2)c(N)n1 | 239 to 241 °C |
| CN(C)CCNC1=CC(=O)c2nc(-c3ccccc3Br)oc2C1=O | 147 to 148 °C |
| Cc1cc2c(c3c1NC(=O)C(C)(C)C3)OC(C)(CN=[N+]=[N-])C2 (centres undefined) | 169 to 170 °C |
| CC(C)(C)OC(=O)NCc1cc(-c2cccnc2)n[nH]1 | 185 to 187 °C |
| Nc1c(Cl)c(Br)cc2[nH]c(=O)c(=O)[nH]c12 | > 350 °C |
